Data published in article PMC11348715 (Chemical Science, 2024).

Assay: Caco-2 permeability assay
Assay type: in vitro ADME
Conditions: human

SMILES | Papp A→B at 10 µM [×10⁻⁶ cm/s]
C[C@H]1O[C@@H](O[C@H]2[C@@H](O)C[C@H](O[C@H]3[C@@H](O)C[C@H](O[C@H]4CC[C@@]5(C)[C@H](CC[C@@H]6[C@@H]5C[C@@H](O)[C@]5(C)[C@@H](C7=CC(=O)OC7)CC[C@]65O)C4)O[C@@H]3C)O[C@@H]2C)C[C@H](O)[C@@H]1O [digoxin] | 1.59
COCCc1ccc(OCC(O)CNC(C)C)cc1 (centres unmarked) [metoprolol] | 19.8
